Data: the supplement of paper PMC10307832

compound: CC1CC(=O)N(C2=CN=C(N=C2N1C3CCCC3)NC4=C(C=C(C=C4)C(=O)NC5CCN(CC5)C)OC)C [NPK76-II-72-1] + Nc1ncn([C@H]2C[C@H](O)[C@@H](CO)O2)c(=O)n1 [Decitabine] (partner 2 µM); test: relative viability (nuclei count vs DMSO), 5 days (fraction); higher = more cells survive; conditions: first compound 1 µM
Outline: (§1)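 Relative viability is defined as nuclei in treated wells over nuclei in vehicle wells. Duplicate plates were run and medians reported. Lung cancer cell lines in 1536-well plates were dosed by pin tool one day after seeding, with one drug or with a fixed anchor-drug dose plus five library-drug doses (not always all listed) in √10 steps, and nuclei were counted after 5 days.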

Row | Cell Line | relative viability
1 | NCI-H358 | 0.214

compound: CC1CC(=O)N(C2=CN=C(N=C2N1C3CCCC3)NC4=C(C=C(C=C4)C(=O)NC5CCN(CC5)C)OC)C [NPK76-II-72-1] + CC(=O)Nc1cccc(-n2c(=O)n(C3CC3)c(=O)c3c(Nc4ccc(I)cc4F)n(C)c(=O)c(C)c32)c1 [Trametinib] (partner 0.02 µM); test: as above; conditions: first compound 0.01 µM
Outline: as §1

Row | Cell Line | relative viability
2 | NCI-H522 | 0.811
3 | NCI-H727 | 0.352
4 | NCI-H1650 | 0.523
5 | NCI-H1993 | 0.551
6 | SW 1573 | 0.471
7 | NCI-H838 | 0.485
8 | NCI-H520 | 0.646
9 | NCI-H2126 | 0.541
10 | EMC-BAC-2 | 0.836
11 | NCI-H2085 | 0.505
12 | HCC-366 | 0.336
13 | NCI-H1666 | 0.851
14 | NCI-H596 | 0.764
15 | LK-2 | 0.767
16 | NCI-H2087 | 0.219
17 | NCI-H2342 | 0.871
18 | SK-MES-1 | 0.543
19 | H3255 | 0.675
20 | COR-L23 | 0.588
21 | COR-L 105 | 0.43
22 | LOU-NH91 | 0.76
23 | ChaGo-K-1 | 0.876
24 | NCI-H2170 | 0.884
25 | SW 900 | 0.871
26 | NCI-H1648 | 0.503
27 | NCI-H1395 | 1.09
28 | CAL-12T | 0.325
29 | NCI-H2228 | 0.348
30 | NCI-H1944 | 0.372
31 | NCI-H358 | 0.14

same assay, conditions: first compound 0.03162 µM

Row | Cell Line | relative viability
32 | NCI-H522 | 0.619
33 | NCI-H727 | 0.392
34 | NCI-H1650 | 0.591
35 | NCI-H1993 | 0.549
36 | SW 1573 | 0.511
37 | NCI-H838 | 0.575
38 | LCLC-103H | 0.673
39 | NCI-H520 | 0.687
40 | NCI-H2126 | 0.567
41 | EMC-BAC-2 | 0.955
42 | NCI-H2085 | 0.522
43 | HCC-366 | 0.403
44 | NCI-H1666 | 0.859
45 | NCI-H596 | 0.787
46 | LK-2 | 0.65
47 | NCI-H2087 | 0.203

Row | Cell Line | relative viability
48 | NCI-H2342 | 0.655
49 | SK-MES-1 | 0.583
50 | H3255 | 0.603
51 | COR-L23 | 0.679
52 | COR-L 105 | 0.456
53 | LOU-NH91 | 0.751
54 | ChaGo-K-1 | 0.98
55 | NCI-H2170 | 0.934
56 | SW 900 | 1.07
57 | NCI-H1648 | 0.504
58 | NCI-H1395 | 1.01
59 | CAL-12T | 0.346
60 | NCI-H2228 | 0.63
61 | NCI-H1793 | 0.389
62 | NCI-H1944 | 0.413
63 | NCI-H358 | 0.145

same assay, conditions: first compound 0.1 µM

Row | Cell Line | relative viability
64 | NCI-H522 | 0.747
65 | NCI-H727 | 0.341
66 | NCI-H1650 | 0.59
67 | NCI-H1993 | 0.624
68 | SW 1573 | 0.633
69 | NCI-H838 | 0.513
70 | LCLC-103H | 0.556
71 | NCI-H520 | 0.676
72 | NCI-H2126 | 0.563
73 | EMC-BAC-2 | 0.845
74 | NCI-H2085 | 0.532
75 | HCC-366 | 0.372
76 | NCI-H1666 | 0.847
77 | NCI-H596 | 0.776
